According to ChEMBL document CHEMBL1201862, “PubChem BioAssay data set” (2004):
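Compound exposure: 48 hours, 5 concentrations, 96-well plates. At the GI50, growth is halved.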 Activity calls are given as the source filed them. Cut-off read from the data, not from the text of the source: active = GI50 up to about 1.1 µM and inactive = higher.

Experiments:
Test in all cases: growth of human tumour cells (NCI), 48 h
HOP-92 = test system: HOP-92
SK-MEL-5 = test system: SK-MEL-5
HCT-116 = test system: HCT-116
SK-MEL-2 = test system: SK-MEL-2
HL-60 = test system: HL-60
SK-MEL-28 = test system: SK-MEL-28
SF-268 = test system: SF-268
KM12 = test system: KM12
UO-31 = test system: UO-31
PC-3 = test system: PC-3
TK-10 = test system: TK-10
NCI/ADR-RES = test system: NCI/ADR-RES
RPMI-8226 = test system: RPMI-8226
DU-145 = test system: DU-145
K562 = test system: K562
COLO 205 = test system: COLO 205
Hs-578T = test system: Hs-578T
A549 = test system: A549
MOLT-4 = test system: MOLT-4
BT-549 = test system: BT-549
ACHN = test system: ACHN
OVCAR-4 = test system: OVCAR-4
LOX IMVI = test system: LOX IMVI
SN12C = test system: SN12C
UACC-257 = test system: UACC-257
IGROV-1 = test system: IGROV-1
NCI-H23 = test system: NCI-H23
SNB-75 = test system: SNB-75
786-0 = test system: 786-0
NCI-H460 = test system: NCI-H460
HOP-62 = test system: HOP-62
MDA-N = test system: MDA-N
MCF7 = test system: MCF7
MDA-MB-435 = test system: MDA-MB-435
EKVX = test system: EKVX
OVCAR-5 = test system: OVCAR-5
SF-295 = test system: SF-295
CCRF-CEM = test system: CCRF-CEM
SR = test system: SR
U-251 = test system: U-251
MDA-MB-231 = test system: MDA-MB-231
A498 = test system: A498
NCI-H522 = test system: NCI-H522
OVCAR-3 = test system: OVCAR-3
SW-620 = test system: SW-620
SF-539 = test system: SF-539
NCI-H226 = test system: NCI-H226
HT-29 = test system: HT-29
OVCAR-8 = test system: OVCAR-8
HCT-15 = test system: HCT-15
Malme-3M = test system: Malme-3M
M14 = test system: M14
UACC-62 = test system: UACC-62
SK-OV-3 = test system: SK-OV-3
RXF 393 = test system: RXF 393
T47D = test system: T47D
SNB-19 = test system: SNB-19
CAKI-1 = test system: CAKI-1
HCC 2998 = test system: HCC 2998

## OCC1(CNc2cc(Cl)ncn2)CCC1
HOP-92
  GI50: > 100 µM (inactive)
SK-MEL-5
  GI50: > 100 µM (inactive)
HCT-116
  GI50: > 100 µM (inactive)
SK-MEL-2
  GI50: > 100 µM (inactive)
HL-60
  GI50: > 100 µM (inactive)
SK-MEL-28
  GI50: > 100 µM (inactive)
SF-268
  GI50: > 100 µM (inactive)
KM12
  GI50: > 100 µM (inactive)
UO-31
  GI50: > 100 µM (inactive)
PC-3
  GI50: > 100 µM (inactive)
TK-10
  GI50: > 100 µM (inactive)
NCI/ADR-RES
  GI50: > 100 µM (inactive)
RPMI-8226
  GI50: > 100 µM (inactive)
DU-145
  GI50: > 100 µM (inactive)
K562
  GI50: > 100 µM (inactive)
COLO 205
  GI50: > 100 µM (inactive)
Hs-578T
  GI50: > 100 µM (inactive)
A549
  GI50: > 100 µM (inactive)
MOLT-4
  GI50: > 100 µM (inactive)
BT-549
  GI50: > 100 µM (inactive)
ACHN
  GI50: > 100 µM (inactive)
OVCAR-4
  GI50: > 100 µM (inactive)
LOX IMVI
  GI50: > 100 µM (inactive)
SN12C
  GI50: > 100 µM (inactive)
UACC-257
  GI50: > 100 µM (inactive)
IGROV-1
  GI50: > 100 µM (inactive)
NCI-H23
  GI50: > 100 µM (inactive)
SNB-75
  GI50: > 100 µM (inactive)
786-0
  GI50: > 100 µM (inactive)
NCI-H460
  GI50: > 100 µM (inactive)
HOP-62
  GI50: > 100 µM (inactive)
MDA-N
  GI50: > 100 µM (inactive)
MCF7
  GI50: > 100 µM (inactive)
MDA-MB-435
  GI50: > 100 µM (inactive)
EKVX
  GI50: > 100 µM (inactive)
OVCAR-5
  GI50: > 100 µM (inactive)
SF-295
  GI50: > 100 µM (inactive)
CCRF-CEM
  GI50: > 100 µM (inactive)
SR
  GI50: > 100 µM (inactive)
U-251
  GI50: > 100 µM (inactive)
MDA-MB-231
  GI50: > 100 µM (inactive)
A498
  GI50: > 100 µM (inactive)
NCI-H522
  GI50: > 100 µM (inactive)
OVCAR-3
  GI50: > 100 µM (inactive)
SW-620
  GI50: > 100 µM (inactive)
SF-539
  GI50: > 100 µM (inactive)
NCI-H226
  GI50: > 100 µM (inactive)
HT-29
  GI50: > 100 µM (inactive)
OVCAR-8
  GI50: > 100 µM (inactive)
HCT-15
  GI50: > 100 µM
Malme-3M
  GI50: > 100 µM (inactive)

## CO/N=C(/C(=O)N(C(=O)/C(=N/OC)c1csc(NC(c2ccccc2)(c2ccccc2)c2ccccc2)n1)n1cnn(CC(=O)OC(C)(C)C)c1=O)c1csc(NC(c2ccccc2)(c2ccccc2)c2ccccc2)n1
SK-MEL-5
  GI50: > 10 µM (inactive)
M14
  GI50: > 10 µM (inactive)
HCT-116
  GI50: > 10 µM (inactive)
UACC-62
  GI50: > 10 µM (inactive)
SK-OV-3
  GI50: > 10 µM (inactive)
SK-MEL-2
  GI50: 2.31 µM (inactive)
HL-60
  GI50: > 10 µM (inactive)
SK-MEL-28
  GI50: > 10 µM (inactive)
SF-268
  GI50: > 10 µM (inactive)
KM12
  GI50: > 10 µM (inactive)
RXF 393
  GI50: > 10 µM (inactive)
UO-31
  GI50: 0.0139 µM (active)
PC-3
  GI50: 1.87 µM (inactive)
TK-10
  GI50: > 10 µM (inactive)
NCI/ADR-RES
  GI50: > 10 µM (inactive)
RPMI-8226
  GI50: > 10 µM (inactive)
DU-145
  GI50: > 10 µM (inactive)
T47D
  GI50: > 10 µM (inactive)
K562
  GI50: > 10 µM (inactive)
COLO 205
  GI50: > 10 µM (inactive)
Hs-578T
  GI50: > 10 µM (inactive)
A549
  GI50: > 10 µM (inactive)
MOLT-4
  GI50: > 10 µM (inactive)
SNB-19
  GI50: > 10 µM (inactive)
BT-549
  GI50: 2.16 µM (inactive)
ACHN
  GI50: > 10 µM (inactive)
OVCAR-4
  GI50: > 10 µM (inactive)
LOX IMVI
  GI50: > 10 µM (inactive)
SN12C
  GI50: > 10 µM (inactive)
UACC-257
  GI50: > 10 µM (inactive)
IGROV-1
  GI50: > 10 µM (inactive)
NCI-H23
  GI50: > 10 µM (inactive)
CAKI-1
  GI50: > 10 µM (inactive)
SNB-75
  GI50: > 10 µM (inactive)
786-0
  GI50: > 10 µM (inactive)
NCI-H460
  GI50: > 10 µM (inactive)
HOP-62
  GI50: > 10 µM (inactive)
MDA-N
  GI50: > 10 µM (inactive)
MCF7
  GI50: > 10 µM (inactive)
MDA-MB-435
  GI50: > 10 µM (inactive)
EKVX
  GI50: > 10 µM (inactive)
OVCAR-5
  GI50: > 10 µM (inactive)
SF-295
  GI50: > 10 µM (inactive)
CCRF-CEM
  GI50: > 10 µM (inactive)
U-251
  GI50: > 10 µM (inactive)
MDA-MB-231
  GI50: > 10 µM (inactive)
A498
  GI50: > 10 µM (inactive)
NCI-H522
  GI50: > 10 µM (inactive)
OVCAR-3
  GI50: > 10 µM (inactive)
SW-620
  GI50: > 10 µM (inactive)
SF-539
  GI50: > 10 µM (inactive)
NCI-H226
  GI50: > 10 µM (inactive)
HCC 2998
  GI50: > 10 µM (inactive)
HT-29
  GI50: > 10 µM (inactive)
OVCAR-8
  GI50: > 10 µM (inactive)
HCT-15
  GI50: > 10 µM
Malme-3M
  GI50: > 10 µM (inactive)

## C(#C[C@@]12CCC[C@@H]1N(Cc1ccccc1)CO2)c1ccc2c(c1)OCO2
M14
  GI50: > 100 µM (inactive)
HCT-116
  GI50: > 100 µM (inactive)
UACC-62
  GI50: > 100 µM (inactive)
SK-OV-3
  GI50: > 100 µM (inactive)
SK-MEL-2
  GI50: > 100 µM (inactive)
SK-MEL-28
  GI50: > 100 µM (inactive)
SF-268
  GI50: > 100 µM (inactive)
KM12
  GI50: > 100 µM (inactive)
RXF 393
  GI50: > 100 µM (inactive)
UO-31
  GI50: > 100 µM (inactive)
PC-3
  GI50: > 100 µM (inactive)
NCI/ADR-RES
  GI50: > 100 µM (inactive)
RPMI-8226
  GI50: > 100 µM (inactive)
DU-145
  GI50: > 100 µM (inactive)
T47D
  GI50: > 100 µM (inactive)
K562
  GI50: > 100 µM (inactive)
COLO 205
  GI50: > 100 µM (inactive)
Hs-578T
  GI50: 65 µM (inactive)
A549
  GI50: > 100 µM (inactive)
MOLT-4
  GI50: > 100 µM (inactive)
SNB-19
  GI50: > 100 µM (inactive)
BT-549
  GI50: > 100 µM (inactive)
ACHN
  GI50: > 100 µM (inactive)
OVCAR-4
  GI50: > 100 µM (inactive)
SN12C
  GI50: > 100 µM (inactive)
UACC-257
  GI50: > 100 µM (inactive)
NCI-H23
  GI50: > 100 µM (inactive)
CAKI-1
  GI50: > 100 µM (inactive)
SNB-75
  GI50: > 100 µM (inactive)
786-0
  GI50: > 100 µM (inactive)
NCI-H460
  GI50: > 100 µM (inactive)
HOP-62
  GI50: > 100 µM (inactive)
MDA-N
  GI50: > 100 µM (inactive)
MCF7
  GI50: > 100 µM (inactive)
MDA-MB-435
  GI50: > 100 µM (inactive)
EKVX
  GI50: > 100 µM (inactive)
OVCAR-5
  GI50: > 100 µM (inactive)
SF-295
  GI50: > 100 µM (inactive)
CCRF-CEM
  GI50: > 100 µM (inactive)
U-251
  GI50: > 100 µM (inactive)
MDA-MB-231
  GI50: > 100 µM (inactive)
A498
  GI50: > 100 µM (inactive)
OVCAR-3
  GI50: > 100 µM (inactive)
SW-620
  GI50: > 100 µM (inactive)
SF-539
  GI50: > 100 µM (inactive)
NCI-H226
  GI50: > 100 µM (inactive)
HCC 2998
  GI50: > 100 µM (inactive)
HT-29
  GI50: > 100 µM (inactive)
OVCAR-8
  GI50: > 100 µM (inactive)
HCT-15
  GI50: > 100 µM
Malme-3M
  GI50: > 100 µM (inactive)
